Measured values published in PubChem BioAssay (NCI).
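Protocol summary: plate cells (96-well), add compound at 5 concentrations, incubate 48 h, interpolate endpoints linearly. TGI denotes the concentration required for complete inhibition of growth.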

Legend:
Assay in all cases: NCI-60 cell line screen, 48 h
786-0 renal = test system: 786-0 renal
A498 renal = test system: A498 renal
A549 NSCLC = test system: A549 NSCLC
ACHN renal = test system: ACHN renal
BT-549 breast = test system: BT-549 breast
CAKI-1 renal = test system: CAKI-1 renal
CCRF-CEM leukemia = test system: CCRF-CEM leukemia
COLO 205 colon = test system: COLO 205 colon
DU-145 prostate = test system: DU-145 prostate
EKVX NSCLC = test system: EKVX NSCLC
HCC-2998 colon = test system: HCC-2998 colon
HCT-116 colon = test system: HCT-116 colon
HCT-15 colon = test system: HCT-15 colon
HL-60(TB) leukemia = test system: HL-60(TB) leukemia
HOP-62 NSCLC = test system: HOP-62 NSCLC
HOP-92 NSCLC = test system: HOP-92 NSCLC
HS 578T breast = test system: HS 578T breast
HT29 colon = test system: HT29 colon
IGROV1 ovarian = test system: IGROV1 ovarian
K-562 leukemia = test system: K-562 leukemia
KM12 colon = test system: KM12 colon
LOX IMVI melanoma = test system: LOX IMVI melanoma
M14 melanoma = test system: M14 melanoma
MALME-3M melanoma = test system: MALME-3M melanoma
MCF7 breast = test system: MCF7 breast
MDA-MB-231 breast = test system: MDA-MB-231 breast
MDA-MB-435 = test system: MDA-MB-435
MDA-N = test system: MDA-N
MOLT-4 leukemia = test system: MOLT-4 leukemia
NCI-H23 lung = test system: NCI-H23 lung
NCI-H460 lung = test system: NCI-H460 lung
NCI-H522 lung = test system: NCI-H522 lung
NCI/ADR-RES ovarian = test system: NCI/ADR-RES ovarian
OVCAR-3 ovarian = test system: OVCAR-3 ovarian
OVCAR-5 ovarian = test system: OVCAR-5 ovarian
OVCAR-8 ovarian = test system: OVCAR-8 ovarian
PC-3 prostate = test system: PC-3 prostate
RPMI-8226 leukemia = test system: RPMI-8226 leukemia
RXF 393 renal = test system: RXF 393 renal
SF-268 CNS = test system: SF-268 CNS
SF-295 CNS = test system: SF-295 CNS
SK-MEL-2 melanoma = test system: SK-MEL-2 melanoma
SK-MEL-28 melanoma = test system: SK-MEL-28 melanoma
SK-MEL-5 melanoma = test system: SK-MEL-5 melanoma
SK-OV-3 ovarian = test system: SK-OV-3 ovarian
SN12C renal = test system: SN12C renal
SNB-19 CNS = test system: SNB-19 CNS
SNB-75 CNS = test system: SNB-75 CNS
SR leukemia = test system: SR leukemia
SW-620 colon = test system: SW-620 colon
T-47D breast = test system: T-47D breast
TK-10 renal = test system: TK-10 renal
U251 CNS = test system: U251 CNS
UACC-257 melanoma = test system: UACC-257 melanoma
UACC-62 melanoma = test system: UACC-62 melanoma
UO-31 renal = test system: UO-31 renal
SF-539 CNS = test system: SF-539 CNS

Compound `COC1(c2ccccc2)NC(=S)NN=C1c1ccccc1` (stereo not drawn) has a TGI (786-0 renal) greater than 100 µM, a TGI (A498 renal) greater than 100 µM and a TGI (A549 NSCLC) greater than 100 µM. For the same compound, the TGI (ACHN renal) was greater than 100 µM, the TGI (BT-549 breast) was 82.8 µM and the TGI (CAKI-1 renal) was greater than 100 µM. For the same compound, the TGI (CCRF-CEM leukemia) was greater than 100 µM, the TGI (COLO 205 colon) was 49.8 µM and the TGI (DU-145 prostate) was greater than 100 µM. For the same compound, the TGI (EKVX NSCLC) was greater than 100 µM, the TGI (HCC-2998 colon) was 37.8 µM and the TGI (HCT-116 colon) was greater than 100 µM. The TGI (HCT-15 colon) was 64.2 µM, the TGI (HL-60(TB) leukemia) was 54.5 µM and the TGI (HOP-62 NSCLC) was greater than 100 µM. For the same compound, the TGI (HOP-92 NSCLC) was greater than 100 µM, the TGI (HS 578T breast) was greater than 100 µM and the TGI (HT29 colon) was greater than 100 µM. It also gave a TGI (IGROV1 ovarian) greater than 100 µM, a TGI (K-562 leukemia) greater than 100 µM and a TGI (KM12 colon) greater than 100 µM. The TGI (LOX IMVI melanoma) was greater than 100 µM, the TGI (M14 melanoma) was greater than 100 µM and the TGI (MALME-3M melanoma) was greater than 100 µM. It also gave a TGI (MCF7 breast) greater than 100 µM, a TGI (MDA-MB-231 breast) of 70.9 µM and a TGI (MDA-MB-435) of 39.1 µM. The TGI (MDA-N) was 45 µM, the TGI (MOLT-4 leukemia) was greater than 100 µM and the TGI (NCI-H23 lung) was greater than 100 µM. The TGI (NCI-H460 lung) was 71.6 µM, the TGI (NCI-H522 lung) was 73.8 µM and the TGI (NCI/ADR-RES ovarian) was 37.7 µM. It also gave a TGI (OVCAR-3 ovarian) of 84.6 µM, a TGI (OVCAR-5 ovarian) greater than 100 µM and a TGI (OVCAR-8 ovarian) of 84 µM. The TGI (PC-3 prostate) was greater than 100 µM, the TGI (RPMI-8226 leukemia) was greater than 100 µM and the TGI (RXF 393 renal) was greater than 100 µM. For the same compound, the TGI (SF-268 CNS) was greater than 100 µM, the TGI (SF-295 CNS) was 99.3 µM and the TGI (SK-MEL-2 melanoma) was 75.8 µM. It also gave a TGI (SK-MEL-28 melanoma) greater than 100 µM, a TGI (SK-MEL-5 melanoma) of 80.7 µM and a TGI (SK-OV-3 ovarian) of 78.4 µM. The TGI (SN12C renal) was 60.8 µM, the TGI (SNB-19 CNS) was greater than 100 µM and the TGI (SNB-75 CNS) was 97.5 µM. It also gave a TGI (SR leukemia) of 85.8 µM, a TGI (SW-620 colon) greater than 100 µM and a TGI (T-47D breast) greater than 100 µM. For the same compound, the TGI (TK-10 renal) was greater than 100 µM, the TGI (U251 CNS) was 46.6 µM and the TGI (UACC-257 melanoma) was greater than 100 µM. It also gave a TGI (UACC-62 melanoma) greater than 100 µM and a TGI (UO-31 renal) greater than 100 µM.

For `O=[N+]([O-])c1ccc(/C=C\c2ccc3c(c2)OCO3)c([N+](=O)[O-])c1`, the TGI (786-0 renal) was greater than 100 µM, the TGI (A498 renal) was 46.7 µM and the TGI (A549 NSCLC) was 73.8 µM. The TGI (ACHN renal) was 33.6 µM, the TGI (BT-549 breast) was 34.2 µM and the TGI (CAKI-1 renal) was 92 µM. For the same compound, the TGI (CCRF-CEM leukemia) was 33.7 µM, the TGI (COLO 205 colon) was 32.3 µM and the TGI (DU-145 prostate) was 47 µM. For the same compound, the TGI (EKVX NSCLC) was 28.1 µM, the TGI (HCC-2998 colon) was 27.6 µM and the TGI (HCT-116 colon) was 21.4 µM. It also gave a TGI (HCT-15 colon) of 37.3 µM, a TGI (HL-60(TB) leukemia) of 39 µM and a TGI (HOP-62 NSCLC) of 69 µM. It also gave a TGI (HOP-92 NSCLC) of 53.5 µM, a TGI (HS 578T breast) of 38.5 µM and a TGI (HT29 colon) of 40.3 µM. It also gave a TGI (IGROV1 ovarian) of 24.7 µM, a TGI (K-562 leukemia) of 50.2 µM and a TGI (KM12 colon) of 54 µM. The TGI (LOX IMVI melanoma) was 27 µM, the TGI (M14 melanoma) was 31.1 µM and the TGI (MALME-3M melanoma) was 46.5 µM. The TGI (MCF7 breast) was 8.58 µM, the TGI (MDA-MB-231 breast) was 33.2 µM and the TGI (MDA-MB-435) was 22.1 µM. For the same compound, the TGI (MDA-N) was 22.4 µM, the TGI (MOLT-4 leukemia) was 33.8 µM and the TGI (NCI-H23 lung) was 48.6 µM. It also gave a TGI (NCI-H460 lung) of 54.5 µM, a TGI (NCI-H522 lung) of 25.6 µM and a TGI (NCI/ADR-RES ovarian) of 81.6 µM. It also gave a TGI (OVCAR-3 ovarian) of 43.1 µM, a TGI (OVCAR-5 ovarian) of 35.5 µM and a TGI (OVCAR-8 ovarian) of 45.5 µM. For the same compound, the TGI (PC-3 prostate) was 63.4 µM, the TGI (RPMI-8226 leukemia) was 19.2 µM and the TGI (RXF 393 renal) was 7.76 µM. The TGI (SF-268 CNS) was 58.5 µM, the TGI (SF-295 CNS) was 59.1 µM and the TGI (SF-539 CNS) was 39.1 µM. It also gave a TGI (SK-MEL-2 melanoma) of 35.3 µM, a TGI (SK-MEL-28 melanoma) of 32.3 µM and a TGI (SK-MEL-5 melanoma) of 38.9 µM. The TGI (SK-OV-3 ovarian) was 35.4 µM, the TGI (SN12C renal) was 34 µM and the TGI (SNB-19 CNS) was 33.6 µM. For the same compound, the TGI (SNB-75 CNS) was 31.5 µM, the TGI (SR leukemia) was 23.6 µM and the TGI (SW-620 colon) was 41.6 µM. The TGI (T-47D breast) was greater than 100 µM, the TGI (TK-10 renal) was 46.3 µM and the TGI (U251 CNS) was 28.9 µM. The TGI (UACC-257 melanoma) was 32 µM, the TGI (UACC-62 melanoma) was 43.2 µM and the TGI (UO-31 renal) was 54.5 µM.
